Experimental data reported in patent publication US20250171457A1, “NITROGEN-CONTAINING HETEROCYCLIC COMPOUND HAVING NRF2 ACTIVATION EFFECT” (CHUGAI SEIYAKU KABUSHIKI KAISHA, priority 2022, published 2025).

Test system: Nrf2 transcriptional activity (pARE-Luc reporter) in HepG2 cells
Assay: In vitro Nrf2 transcriptional activity measurement by ARE-dependent reporter assay in HepG2 cell
Type: cell-based, human
Conditions: Homo sapiens; HepG2 cells transfected with pARE-Luc, 4 hours at 37° C.; luciferase activity of Example 1-54 or Example 17-23 at 3.75 μM defined as 100%
Method in brief: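 Luminescence readout (Bright-Glo) after 4 h, 37° C compound exposure of HepG2 cells carrying the ARE-luciferase vector pGL4.37. Each well converted to % response versus reference compound at 3.75 μM, and EC50 derived from dose-response curves.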

Structure (SMILES)	EC50 [nM]
C[C@@H]1CNCCN1c1cc(Cl)c(C(=O)N2COc3c(cccc3-c3cc(N4C5CCC4COC5)c(C(=O)O)cc3F)C2)c(Cl)c1 [Compound 9-25, 4-[3-[2,6-Dichloro-4-[(2R)-2-methylpiperazin-1-yl]benzoyl]-2,4-dihydro-1,3-benzoxazin-8-yl]-5-fluoro-2-(3-oxa-8-azabicyclo[3.2.1]octan-8-yl)benzoic acid]	8.8
COCCN1CC2(CCN(c3cc(Cl)c(C(=O)N4COc5c(cccc5-c5cc(N6C7CCC6COC7)c(C(=O)O)cc5F)C4)c(Cl)c3)C2)C1 [Compound 8-9, 4-[3-[2,6-Dichloro-4-[2-(2-methoxyethyl)-2,7-diazaspiro[3.4]octan-7-yl]benzoyl]-2,4-dihydro-1,3-benzoxazin-8-yl]-5-fluoro-2-(3-oxa-8-azabicyclo[3.2.1]octan-8-yl)benzoic acid]	9.5
COCC(COC)N1C2CCC1CN(c1cc(Cl)c(C(=O)N3COc4c(cccc4-c4cc(N5C6CCC5COC6)c(C(=O)O)cc4F)C3)c(Cl)c1)C2 [Compound 7-18, 4-[3-[2,6-Dichloro-4-[8-(1,3-dimethoxypropan-2-yl)-3,8-diazabicyclo[3.2.1]octan-3-yl]benzoyl]-2,4-dihydro-1,3-benzoxazin-8-yl]-5-fluoro-2-(3-oxa-8-azabicyclo[3.2.1]octan-8-yl)benzoic acid]	1.7
O=C(O)c1cc(F)c(-c2cccc3c2OCN(C(=O)c2c(Cl)cc(N4CCCC4=O)cc2Cl)C3)cc1N1CCOCC1 [Compound 1-52, 4-[3-[2,6-Dichloro-4-(2-oxopyrrolidin-1-yl)benzoyl]-2,4-dihydro-1,3-benzoxazin-8-yl]-5-fluoro-2-morpholin-4-ylbenzoic acid]	14
O=C(O)c1cc(F)c(-c2cccc3c2OCN(C(=O)c2c(Cl)cc(N4C5COCC4C5)cc2Cl)C3)cc1N1C2CCC1COC2 [Compound 1-5, 4-[3-[2,6-Dichloro-4-(3-oxa-6-azabicyclo[3.1.1]heptan-6-yl)benzoyl]-2,4-dihydro-1,3-benzoxazin-8-yl]-5-fluoro-2-(3-oxa-8-azabicyclo[3.2.1]octan-8-yl)benzoic acid]	3.1
CN1CCN(c2cc(Cl)c(C(=O)N3COc4c(cccc4-c4ccc(C(=O)O)c(N5CCOCC5)c4)C3)c(Cl)c2)CC1 [Compound 1-64, 4-[3-[2,6-Dichloro-4-(4-methylpiperazin-1-yl)benzoyl]-2,4-dihydro-1,3-benzoxazin-8-yl]-2-morpholin-4-ylbenzoic acid]	3
CC(C)(O)CN1CCN(c2cc(Cl)c(C(=O)N3COc4c(cccc4-c4ccc(C(=O)O)c(N5CCOCC5)c4)C3)c(Cl)c2)CC1 [Compound 1-62, 4-[3-[2,6-Dichloro-4-[4-(2-hydroxy-2-methylpropyl)piperazin-1-yl)benzoyl]-2,4-dihydro-1,3-benzoxazin-8-yl]-2-morpholin-4-ylbenzoic acid]	3.2
O=C(O)c1cc(F)c(-c2cccc3c2OCN(C(=O)c2c(Cl)cc(N4CC5CCC(C4)N5CC4(F)COC4)cc2Cl)C3)cc1N1C2CCC1COC2 [Compound 7-15, 4-[3-[2,6-Dichloro-4-[8-[(3-fluorooxetan-3-yl)methyl]-3,8-diazabicyclo[3.2.1]octan-3-yl]benzoyl]-2,4-dihydro-1,3-benzoxazin-8-yl]-5-fluoro-2-(3-oxa-8-azabicyclo[3.2.1]octan-8-yl)benzoic acid]	2.5
O=C(O)c1cc(F)c(-c2cccc3c2OCN(C(=O)c2c(Cl)cc(N4C5CCC4COC5)cc2Cl)C3)cc1N1C2CCC1COC2 [Compound 1-41, 4-[3-[2,6-Dichloro-4-(3-oxa-8-azabicyclo[3.2.1]octan-8-yl)benzoyl]-2,4-dihydro-1,3-benzoxazin-8-yl]-5-fluoro-2-(3-oxa-8-azabicyclo[3.2.1]octan-8-yl)benzoic acid]	2
O=C(O)c1cc(F)c(-c2cccc3c2OCN(C(=O)c2c(Cl)cc(N4CC5CC(C4)N5C4COC4)cc2Cl)C3)cc1N1C2CCC1COC2 [Compound 20-5, 4-[3-[2,6-Dichloro-4-[6-(oxetan-3-yl)-3,6-diazabicyclo[3.1.1]heptan-3-yl]benzoyl]-2,4-dihydro-1,3-benzoxazin-8-yl]-5-fluoro-2-(3-oxa-8-azabicyclo[3.2.1]octan-8-yl)benzoic acid]	75
Cn1cc(-c2cc(Cl)c(C(=O)N3Cc4cccc(-c5ccc(C(=O)O)c(N6CCOCC6)c5)c4NC3=O)c(Cl)c2)cn1 [Compound 14-6, 4-[3-[2,6-Dichloro-4-(1-methylpyrazol-4-yl)benzoyl]-2-oxo-1,4-dihydroquinazolin-8-yl]-2-morpholin-4-ylbenzoic acid]	20
CN1CCN(c2cc(Cl)c(C(=O)N3COc4c(cccc4-c4cc(N5C6CCC5COC6)c(C(=O)O)cc4F)C3)c(Cl)c2)C2CC21 (centres unmarked) [Compound 9-5, 4-[3-[2,6-Dichloro-4-(5-methyl-2,5-diazabicyclo[4.1.0]heptan-2-yl)benzoyl]-2,4-dihydro-1,3-benzoxazin-8-yl]-5-fluoro-2-(3-oxa-8-azabicyclo[3.2.1]octan-8-yl)benzoic acid]	4.6
COCCN1CCC(Oc2cc(Cl)c(C(=O)N3COc4c(cccc4-c4cc(N5CCOCC5)c(C(=O)O)cc4F)C3)c(Cl)c2)CC1 [Compound 4-47, 4-[3-[2,6-Dichloro-4-[1-(2-methoxyethyl)piperidin-4-yl]oxybenzoyl]-2,4-dihydro-1,3-benzoxazin-8-yl]-5-fluoro-2-morpholin-4-ylbenzoic acid]	3.3
O=C(O)c1cc(F)c(-c2cccc3c2OCN(C(=O)c2c(Cl)cc(N4CC5(CCO5)C4)cc2Cl)C3)cc1N1C2CCC1COC2 [Compound 1-2, 4-[3-[2,6-Dichloro-4-(1-oxa-6-azaspiro[3.3]heptan-6-yl)benzoyl]-2,4-dihydro-1,3-benzoxazin-8-yl]-5-fluoro-2-(3-oxa-8-azabicyclo[3.2.1]octan-8-yl)benzoic acid]	8.6
Cn1cc2cc(-c3cc(Cl)c(C(=O)N4COc5c(cccc5-c5cc(N6C7CCC6COC7)c(C(=O)O)cc5F)C4)c(Cl)c3)ccc2n1 [Compound 3-12, 4-[3-[2,6-Dichloro-4-(2-methylindazol-5-yl)benzoyl]-2,4-dihydro-1,3-benzoxazin-8-yl]-5-fluoro-2-(3-oxa-8-azabicyclo[3.2.1]octan-8-yl)benzoic acid]	8.7
COC1CN(C2CC3(C2)CN(c2cc(Cl)c(C(=O)N4COc5c(cccc5-c5cc(N6C7CCC6COC7)c(C(=O)O)cc5F)C4)c(Cl)c2)C3)C1 [Compound 11-1, 4-[3-[2,6-Dichloro-4-[6-(3-methoxyazetidin-1-yl)-2-azaspiro [3.3]heptan-2-yl]benzoyl]-2,4-dihydro-1,3-benzoxazin-8-yl]-5-fluoro-2-(3-oxa-8-azabicyclo [3.2.1]octan-8-yl)benzoic acid]	3.6
CO[C@H]1C[C@H]2CN(c3cc(Cl)c(C(=O)N4COc5c(cccc5-c5cc(N6C7CCC6COC7)c(C(=O)O)cc5F)C4)c(Cl)c3)C[C@H]21 (racemic) [Compound 6-12, 4-[3-[2,6-Dichloro-4-[rac-(1R,5S,6S)-6-methoxy-3-azabicyclo[3.2.0]heptan-3-yl]benzoyl]-2,4-dihydro-1,3-benzoxazin-8-yl]-5-fluoro-2-(3-oxa-8-azabicyclo[3.2.1]octan-8-yl)benzoic acid]	3.9
